Where no end group is shown, it is not given here.
Tests used:
[1] = tested on: affinity-purified Ca^2+ -dependent antibodies present in sera from rabbit 1 (anti-D4 K); experiment: Solution phase competitive immunoradiometric assay: competition of binding to 125I-YD4 K, precipitation with second antibody; details: Ca2+-dependent antibodies from rabbit 1; FIG. 3; read-out: IC50, displacement of binding to 125I-YD4 K
Procedure: The relative affinities of affinity-purified Ca^2+ -dependent antibodies present in sera from rabbit 1 for various peptides was examined by determining competition of binding to ^125 I-YD4 K, measured by precipitation with a second antibody, donkey anti-rabbit. […] Some binding to Asp2 Lys was seen.
100 μl of a 1:250 dilution of anti-D4 K antiserum or a dilution of affinity-purified anti-D4 K antibodies in 50mM Tris-Hcl, 20mM CaCl2, 0.1% (w/v) BSA, pH 7.4 (RIA buffer) were added to 100 μl of ^125 I-YD4 K, (10,000 cpm) in RIA buffer containing 0.2% (v/v) normal rabbit serum in polystyrene tubes. Then 100 μl of solutions containing various concentrations of standard peptides or unknown plasma samples diluted in RIA-buffer were added, followed by 50 μl of donkey anti-rabbit Ig serum (Wellcome Biotechnology) diluted 1:10 with RIA-buffer with 0.2% normal rabbit serum. The mixtures were incubated 18 hours at 4° C., then the tubes were centrifuged at 3,000 rpm for 45 minutes at 4° C., and the supernatants aspirated. The radioactivity in the precipitates was determined in an LKB rack-gamma counter.

[2] = in vivo; details: rat, iv
Procedure: To determine the fate of circulating peptide, D4 K (0.28 ml, 1 mg/ml) was injected into the left femoral vein of rats under phenobarbital anaesthesia. Blood samples (0.5 ml) were collected every 15 minutes for 2 hours, and subjected to immunoassay.

[3] = Incubation in human serum (immunoreactivity; Sephadex G-100 chromatography); type: in vitro ADME
Procedure: Immunoreactive D4 K was unaltered by incubation with undenatured human serum at 37° C. for 6 hours and 4° C. for 48 hours.

[4] = type: in vitro ADME
Procedure: The stability of APFD4 K and D4 K were examined by incubation with activated pancreatic juice, and the chemical identity of the product examined by high-voltage paper electrophoresis at pH 6.5. […] In three separate experiments, duplicate 65 to 75 mg portions of fresh dog pancreas were placed in modified Bank's medium and incubated in the presence or absence of 100 units enterokinase (Sigma Chem. Co. […]) at 37° C. for 4 hours and 22° C. for a further 20 hours. Duplicate 100 ul samples of culture medium supernatant were taken at intervals, diluted 2:1 with RIA buffer, boiled for 10 minutes and centrifuged. Supernatants were then stored at -20° C. prior to assay for D4 K peptides.

[5] = molecular target: anti-D4 K antibodies; experiment: Displacement of 125I-YD4 K binding by trypsinogen with and without enteropeptidase activation; design: species or system rabbit
Procedure: Of great importance to the general principle of the PAP assay of which this is an example, and for the application of these specific anti-D4 K antibodies to the diagnosis of pancreatic disease was the finding that anti-D4 K antibodies were […] on the peptide, and were not displaced by trypsinogen (where the peptide is C-terminally bound to the protein) in concentrations of the zymogen of up to 100 μg/ml. Upon incubation of trypsinogen with enteropeptidase, however, released D4 K-containing activation peptides actively displaced the binding of synthetic ^125 I-YD4 K giving 50% displacement after activation of a 2 μg/ml solution of trypsinogen (FIG. 4). Trypsinogen in native dog pancreatic juice was also activated by enteropeptidase (FIG. 4) releasing immunoreactive D4 K peptides, giving 50% displacement in competitive solution-phase immunoassay after activation of 10^-8 L pancreatic juice. The novel D4 K-specific antibodies described here therefore also provide a new sensitive assay for enteropeptidase and trypsinogen applicable to fluids with endogenous trypsin inhibitors. […]

Question: For poly-Asp, which IC50 [1] is on record?
Answer: > 100 µM

Question: Which half-life [2] does the source give for DDDDK [D4 K, Asp-Asp-Asp-Asp-Lys] here?
Answer: ~15 min

Question: What about the “stability of immunoreactive peptide in undenatured human serum” value ([3]; 4° C. for 48 hours) of the same molecule?
Answer: unaltered

Question: And the “stability of immunoreactive peptide in undenatured human serum” value ([3]; 37° C. for 6 hours)?
Answer: unaltered

Question: For N[C@@H](CC(=O)O)C(=O)O [Asp, Aspartic Acid], which IC50 [1] is on record?
Answer: > 100 µM

Question: Which IC50 [1] does the source give for NCCCC[C@H](N)C(=O)O [Lys, Lysine] here?
Answer: > 100 µM

Question: For “APFDDDDK [APFD4 K, Ala-Pro-Phe-Asp-Asp-Asp-Asp-Lys]”, which “stability in activated pancreatic juice (identity of product)” value [4] is on record?
Answer: rapidly converted to free Ala, Pro and Phe and D4 K

Question: For YDDDDK [YD4 K], which “complexing with a serum component” value ([3]; Sephadex G-100 chromatography after incubation in human serum) is on record?
Answer: did not complex with a serum component

B1: trypsinogen: zymogen in which the D4 K peptide is C-terminally bound to the protein (protein, UniProt P00760 18-246, looked up)
pro-form: VDDDDKIVGGYTCGANTVPYQVSLNSGYHFCGGSLINSQWVVSAAHCYKSGIQVRLGEDNINVVEGNEQFISASKSIVHPSYNSNTLNNDIMLIKLKSAASLNSRVASISLPTSCASAGTQCLISGWGNTKSSGTSYPDVLKCLKAPILSDSSCKSAYPGQITSNMFCAGYLEGGKDSCQGDSGGPVVCSGKLQGIVSWGSGCAQKNKPGVYTKVCNYVSWIKQTIASN
modifications: pro-form
Question: With B1 as the molecule, how does the “concentration of solution giving 50% displacement of 125I-YD4 K” value ([5]; after incubation of trypsinogen with enteropeptidase, FIG. 4) read?
Answer: 2 µg/mL

Question: And the “concentration up to which antibodies were not displaced” value ([5]; trypsinogen without enteropeptidase activation)?
Answer: > 100 µg/mL

— patent publication US5356781A, “Zymogen activation peptides (ZAP) in the diagnosis of disease” (Bioscience International, Inc., priority 1986, dated 1994)
